The test system of assay [1] is phosphorylation of ERK, KRAS G12D in AGS cells. Nature of the assay: pERK inhibition assay, G12D. The format is cell-based, human. The settings on record: 4 hours of incubation. The gist of the method: (§1)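 NCI-H358 (G12C), AGS (G12D) and SW620 (G12V) cells were seeded overnight at 30,000, 20,000 and 30,000 cells/well, respectively. They were then treated 4 h with compound (0.5% DMSO final), fixed, and methanol-permeabilized. pERK was detected by in-cell ELISA (anti-pERK/HRP, TMB, OD450); IC50 from a 4-parameter sigmoidal fit.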

For assay [2], the target named is T1, KRAS G12C-BRAF complex (Homo sapiens, UniProt P01116+P62937, G12C).
T1 construct: expressed in transfected cells
T1 sequence (P01116 1-188 isoform P01116-2 G12C): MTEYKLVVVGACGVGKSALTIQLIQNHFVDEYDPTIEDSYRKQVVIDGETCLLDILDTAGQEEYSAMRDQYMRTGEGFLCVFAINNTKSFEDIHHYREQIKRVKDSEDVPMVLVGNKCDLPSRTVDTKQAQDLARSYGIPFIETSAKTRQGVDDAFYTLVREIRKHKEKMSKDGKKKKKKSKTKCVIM
T1 sequence (P62937 whole entry): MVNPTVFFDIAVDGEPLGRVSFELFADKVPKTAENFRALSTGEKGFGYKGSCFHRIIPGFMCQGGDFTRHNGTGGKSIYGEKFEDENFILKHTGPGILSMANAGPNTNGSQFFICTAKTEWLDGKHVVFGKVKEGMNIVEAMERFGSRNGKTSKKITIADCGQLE
As to the kind of experiment: KRAS-BRAF with CYPA (500 nM) interaction assay (TR-FRET), G12C. In kind it is biochemical. The settings on record: 3 hours. As to the method: (§2) Kras-BRAF with CYPA (500 nM) Interaction Assay In this example, TR-FRET was also used to measure the compound or compound-CYPA dependent disruption of the KRAS G12C-BRAF complex. This protocol was also used to measure disruption of KRAS G12D or KRAS G12V binding to BRAF by a compound of the invention, respectively. […] TR-FRET signal was read on a […] microplate reader (Ex320 nm, Em 665/615 nm). Compounds that facilitate disruption of the KRAS-BRAF complex were identified as those eliciting a decrease in the TR-FRET ratio relative to DMSO control wells.
A general note: In TR-FRET formats the signal depends on donor and acceptor labels being close together.

A further assay deals with AGS cells (KRAS G12D). Nature of the assay: Cell viability assay, G12D. The format is cell-based, human. As to conditions: 72 hrs, Cell Counting Kit-8. The gist of the method: (§3)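 Seed NCI-H358 5,000/well, AGS and SW620 2,000/well; overnight. Compound, 0.5% DMSO final, 72 hrs. CCK-8 2 hrs, OD450–OD650. IC50: 4-parameter fit.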
The subject of a further assay is SW620 cells (KRAS G12V). Nature of the assay: Cell viability assay, G12V. In kind it is cell-based, human. The settings on record: SW620, 72 hrs, Cell Counting Kit-8. The gist of the method:
as §3
On the technique in general: Formazan colour is commonly taken as a measure of viable cells.

Assay [3] relates to NCI-H358 cells (KRAS G12C). Nature of the assay: Cell viability assay, G12C. In kind it is cell-based, human. As to conditions: NCI-H358, 72 hrs, Cell Counting Kit-8. The gist of the method:
as §3

For assay [4], the system named is phosphorylation of ERK, KRAS G12C in NCI-H358 cells. As to the kind of experiment: pERK inhibition assay, G12C. The format is cell-based, human. The settings on record: NCI-H358, 4 hours of incubation. The gist of the method:
as §1

The target in assay [5] is KRAS G12V binding to BRAF (Homo sapiens, UniProt P01116+P62937, G12V). Nature of the assay: KRAS-BRAF with CYPA (500 nM) interaction assay (TR-FRET), G12V. The format is biochemical. The settings on record: 3 hours. As to the method:
as §2

Assay [6] relates to phosphorylation of ERK, KRAS G12V in SW620. As to the kind of experiment: pERK inhibition assay, G12V. In kind it is cell-based, human. The settings on record: SW620, 4 hours of incubation. The gist of the method:
as §1

Assay [7] deals with KRAS G12D binding to BRAF (Homo sapiens, UniProt P01116+P62937, G12D). Nature of the assay: KRAS-BRAF with CYPA (500 nM) interaction assay (TR-FRET), G12D. In kind it is biochemical. The settings on record: 3 hours. On the procedure: as §2
KRAS G12D binding to BRAF, sequence (P01116 1-188 isoform P01116-2 G12D): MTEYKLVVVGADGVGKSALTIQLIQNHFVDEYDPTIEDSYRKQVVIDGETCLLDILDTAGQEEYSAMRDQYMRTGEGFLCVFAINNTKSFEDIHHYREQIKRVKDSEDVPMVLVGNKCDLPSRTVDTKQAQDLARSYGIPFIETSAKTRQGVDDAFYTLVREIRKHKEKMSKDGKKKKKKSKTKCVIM
KRAS G12D binding to BRAF, sequence (P62937 whole entry): as the sequence (P62937 whole entry) above
In assay [8] the target is T1, KRAS G12C-BRAF complex. Nature of the assay: KRAS G12C-BRAF NanoBit assay in HEK293 cells. The format is cell-based. The settings on record: HEK293 stable cell pool, 3 hours of incubation. The gist of the method:
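HEK293 stable pool co-expressing SmBiT-KRAS G12C and BRAF RBD-LgBiT, exposed 3 h to compounds (16-point 3-fold dilution, top final 30 μM). Luminescence was read 20 min after Nano-Glo Live Cell substrate addition. A decrease versus DMSO control indicates disruption of the complex.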

KRAS G12V binding to BRAF, sequence (P01116 1-188 isoform P01116-2 G12V): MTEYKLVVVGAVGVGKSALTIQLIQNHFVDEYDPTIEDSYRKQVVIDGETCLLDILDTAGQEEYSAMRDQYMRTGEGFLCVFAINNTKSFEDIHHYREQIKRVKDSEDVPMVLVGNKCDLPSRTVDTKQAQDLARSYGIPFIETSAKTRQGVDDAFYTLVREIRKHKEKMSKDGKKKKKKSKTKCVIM
KRAS G12V binding to BRAF, sequence (P62937 whole entry): as the sequence (P62937 whole entry) above

By IC50 is commonly meant the concentration that gives 50% inhibition. `CO[C@@H](C)c1ncc(N2CCN(C)CC2)cc1-c1c2c3c(F)c(ccc3n1CC(F)(F)F)-c1csc(n1)C[C@H](NC(=O)[C@H](C(C)C)N(C)C(=O)[C@H]1C[C@@H](C#CC(F)(F)F)C1)C(=O)N1CCC[C@H](N1)C(=O)OCC(C)(C)C2` (atropisomer, axis not shown; (M)) [Example 12, cis-N-[(1S)-1-[[(7S,13S)-25-fluoro-(20M)-20-[2-[(1S)-1-methoxyethyl]-5-(4-methylpiperazin-1-yl)-3-pyridyl]-17,17-dimethyl-8,14-dioxo-21-(2,2,2-trifluoroethyl)-15-oxa-4-thia-9,21,27,28-tetrazapentacyclo[17.5.2.1^2,5.1^9,13.0^22,26]octacosa-1(25),2,5(28),19,22(26),23-hexaen-7-yl]carbamoyl]-2-methyl-propyl]-N-methyl-3-(3,3,3-trifluoroprop-1-ynyl)cyclobutanecarboxamide]: the IC50 in assay [1] (Homo sapiens) turned out to be 0.667 µM; at KRAS G12C-BRAF complex [2], 0.063 µM; with AGS cells (KRAS G12D) (Homo sapiens) it was 3.1 µM; with SW620 cells (KRAS G12V) (Homo sapiens, SW-620) it was 0.36 µM; in [3] (Homo sapiens), 0.033 µM; in assay [4] (Homo sapiens), 0.092 µM. For the same compound, the IC50 in assay [5] came to 0.484 µM; in assay [6] (Homo sapiens, SW-620), 0.201 µM; in assay [7], 1.47 µM; at KRAS G12C-BRAF complex [8], 0.067 µM.
With `CO[C@@H](C)c1ncc(N2CCN(C)CC2)cc1-c1c2c3cc(c(F)cc3n1CC(F)(F)F)-c1csc(n1)C[C@H](NC(=O)[C@H](C(C)C)N(C)C(=O)[C@H]1CC[C@H](C#CC(F)(F)F)CC1)C(=O)N1CCC[C@H](N1)C(=O)OCC(C)(C)C2` (atropisomer, axis not shown; (M)) [Example 9, trans-N-[(1S)-1-[[(7S,13S)-24-fluoro-(20M)-20-[2-[(1S)-1-methoxyethyl]-5-(4-methylpiperazin-1-yl)-3-pyridyl]-17,17-dimethyl-8,14-dioxo-21-(2,2,2-trifluoroethyl)-15-oxa-4-thia-9,21,27,28-tetrazapentacyclo[17.5.2.1^2,5.1^9,13.0^22,26]octacosa-1(25),2,5(28),19,22(26),23-hexaen-7-yl]carbamoyl]-2-methyl-propyl]-N-methyl-4-(3,3,3-trifluoroprop-1-ynyl)cyclohexanecarboxamide], the IC50 in assay [1] (Homo sapiens) was 1.77 µM; at KRAS G12C-BRAF complex [2], 0.819 µM; with AGS cells (KRAS G12D) (Homo sapiens), > 5 µM; with SW620 cells (KRAS G12V) (Homo sapiens, SW-620), > 5 µM; in assay [3] (Homo sapiens) it was 0.436 µM; in [4] (Homo sapiens), 0.292 µM. For the same compound, the IC50 in assay [5] was determined as 1.98 µM; in assay [6] (Homo sapiens, SW-620), 0.498 µM; in assay [7], 3.01 µM; against KRAS G12C-BRAF complex [8], 0.418 µM.
On to `CO[C@@H](C)c1ncc(N2CCN(C)CC2)cc1-c1c2c3cc(c(F)cc3n1CC(F)(F)F)-c1csc(n1)C[C@H](NC(=O)[C@H](C(C)C)N(C)C(=O)[C@H]1C[C@@H](C#Cc3ncccn3)C1)C(=O)N1CCC[C@H](N1)C(=O)OCC(C)(C)C2` (relative stereo) [Example 5, cis-N-[(1S)-1-[[(7S,13S)-24-fluoro-(20M)-20-[2-[(1S)-1-methoxyethyl]-5-(4-methylpiperazin-1-yl)-3-pyridyl]-17,17-dimethyl-8,14-dioxo-21-(2,2,2-trifluoroethyl)-15-oxa-4-thia-9,21,27,28-tetrazapentacyclo[17.5.2.1^2,5.1^9,13.0^22,26]octacosa-1(25),2,5(28),19,22(26),23-hexaen-7-yl]carbamoyl]-2-methyl-propyl]-N-methyl-3-(2-pyrimidin-2-ylethynyl)cyclobutanecarboxamide], for which the half-inhibitory concentration (IC50) in [1] was 0.145 µM; at KRAS G12C-BRAF complex [2], 0.128 µM; with AGS cells (KRAS G12D) it was 0.536 µM; in the assay with SW620 cells (KRAS G12V), 0.23 µM; in assay [3] it was 0.007 µM; in assay [4], 0.058 µM. For the same compound, the half-maximal inhibitory concentration (IC50) in assay [5] is 1.1 µM; in assay [6] it was < 0.001 µM; in assay [7], 9.95 µM; at KRAS G12C-BRAF complex [8] it was 0.106 µM.
Turning to `CO[C@@H](C)c1ncc(N2CCN(C)CC2)cc1-c1c2c3cc(c(F)cc3n1CC(F)(F)F)-c1csc(n1)C[C@H](NC(=O)[C@H](C(C)C)N(C)C(=O)[C@H]1CC[C@@H](C#CC(F)(F)F)CC1)C(=O)N1CCC[C@H](N1)C(=O)OCC(C)(C)C2` (atropisomer, axis not shown; (M)) [Example 10, cis-N-[(1S)-1-[[(7S,13S)-24-fluoro-(20M)-20-[2-[(1S)-1-methoxyethyl]-5-(4-methylpiperazin-1-yl)-3-pyridyl]-17,17-dimethyl-8,14-dioxo-21-(2,2,2-trifluoroethyl)-15-oxa-4-thia-9,21,27,28-tetrazapentacyclo[17.5.2.1^2,5.1^9,13.0^22,26]octacosa-1(25),2,5(28),19,22(26),23-hexaen-7-yl]carbamoyl]-2-methyl-propyl]-N-methyl-4-(3,3,3-trifluoroprop-1-ynyl)cyclohexanecarboxamide], the concentration for half-maximal inhibition (IC50) in [1] (Homo sapiens) is 0.152 µM; against KRAS G12C-BRAF complex [2], > 10 µM; in the assay with AGS cells (KRAS G12D) (Homo sapiens), 0.876 µM; in the assay with SW620 cells (KRAS G12V) (Homo sapiens, SW-620) it was > 5 µM; in [3] (Homo sapiens) it was 0.078 µM; in [4] (Homo sapiens) it was 0.048 µM. In addition, the IC50 in assay [5] worked out at 1.48 µM; in [6] (Homo sapiens, SW-620) it was 0.065 µM; in assay [7] it was 1.91 µM; on KRAS G12C-BRAF complex [8], 0.12 µM.
As for `CO[C@@H](C)c1ncc(N2CCN(C)CC2)cc1-c1c2c3cc(c(F)cc3n1CC(F)(F)F)-c1csc(n1)C[C@H](NC(=O)[C@@H](CC(=O)N1CC(C#CC(F)(F)F)C1)C(C)C)C(=O)N1CCC[C@H](N1)C(=O)OCC(C)(C)C2` [Example 19, (2S)—N-[(7S,13S)-24-fluoro-(20M)-20-[2-[(1S)-1-methoxyethyl]-5-(4-methylpiperazin-1-yl)-3-pyridyl]-17,17-dimethyl-8,14-dioxo-21-(2,2,2-trifluoroethyl)-15-oxa-4-thia-9,21,27,28-tetrazapentacyclo[17.5.2.1^2,5.1^9,13.0^22,26]octacosa-1(25),2,5(28),19,22(26),23-hexaen-7-yl]-2-isopropyl-4-oxo-4-[3-(3,3,3-trifluoroprop-1-ynyl)azetidin-1-yl]butanamide], the IC50 in assay [1] (Homo sapiens) was > 10 µM; on KRAS G12C-BRAF complex [2], 0.24 µM; in the assay with AGS cells (KRAS G12D) (Homo sapiens), 3.34 µM; with SW620 cells (KRAS G12V) (Homo sapiens, SW-620), 0.653 µM; in [3] (Homo sapiens), 0.166 µM; in assay [4] (Homo sapiens), 0.221 µM. The IC50 in assay [5] is 2.25 µM; in [6] (Homo sapiens, SW-620), 0.198 µM; in assay [7], > 10 µM; on KRAS G12C-BRAF complex [8], 0.075 µM.
